Data set [1] can be described thus: Dynamic Vapour Sorption (DVS) measurements. It counts as physicochemical. From the text: Dynamic Vapour Sorption (DVS) measurements were made for the compound of Example 12 by exposing a solid sample to controlled relative humidity (% RH) and weight change recorded with time on an automated water sorption analyser.
The nature of data set [2]: Preliminary analysis of hygroscopicity / hydration state. It is filed as physicochemical. The note with it: solid compound.

Structures are written as SMILES.

`CCCCOc1ncc(C(C)=O)cc1-c1nc2c(CC)n(C3CN(CC)C3)nc2c(=O)[nH]1.O=S(=O)(O)c1ccccc1` [Example 12, 5-(5-Acetyl-2-butoxy-3-pyridinyl)-3-ethyl-2-(1-ethyl-3-azetidinyl)-2,6dihydro-7H-pyrazolo[4,3-d]pyrimidin-7-one benzenesulfonate]: the “weight lost on drying (sorption/desorption isotherm)” value in data set [1] (DVS, loss due to residual solvent or surface moisture) worked out at 0.9%. Besides, in data set [1] (solid sample exposed to controlled relative humidity), the hygroscopicity result is reported as “non-hygroscopic”. On to `CCCCOc1ncc(C(C)=O)cc1-c1nc2c(CC)n(C3CN(CC)C3)nc2c(=O)[nH]1` [compound 1A, 5-(5-Acetyl-2-butoxy-3-pyridinyl)-3-ethyl-2-(1-ethyl-3-azetidinyl)-2,6-dihydro-7H-pyrazolo[4,3-d]pyrimidin-7-one], for which the “hygroscopicity (preliminary analysis)” value in data set [2] is “anhydrous and non-hygroscopic”.
